Key:
Type in all cases: in vivo
[1] = test system: Barnyardgrass; test: Post-emergence herbicidal activity, greenhouse; conditions: 4 WAT
From the text: (§1) A good grade of top soil is placed in aluminum pans having holes in the bottom and compacted to a depth of 0.95 to 1.27 cm. from the top of the pan. A predetermined number of seeds of each of several dicotyledonous and monocotyledonous annual plant species and/or vegetative propagules for the perennial plant species are placed on the soil and pressed into the soil surface. The seeds and/or vegetative propagules are covered with soil and leveled. The pans are then placed on a sand bench in the greenhouse and watered from below as needed. After the plants reach the desired age (two to three weeks), each pan except for the control pans is removed individually to a spraying chamber and sprayed by means of an atomizer operating at a positive air pressure of approximately 1.46 kg/cm^2 absolute. The atomizer contains 6 ml. of a solution or suspension of the chemical. In that 6 ml., is an amount of a cyclohexanone emulsifying agent mixture to give a spray solution or suspension which contains about 0.4% by weight of the emulsifier. The spray solution or suspension contains a sufficient amount of the candidate chemical in order to give application rates corresponding to those set forth in the tables. The spray solution is prepared by taking an aliquot of a 1.0% by weight stock solution or suspension of the candidate chemical in an organic solvent such as acetone or tetrahydrofuran or in water. The emulsifying agent employed is a mixture comprising 35 weight percent butylamine dodecylbenzene sulfonate and 65 weight percent of a tall oil ethylene oxide condensate having about 11 moles of ethylene oxide per mole of tall oil. The pans are returned to the greenhouse and watered as before and the injury to the plants as compared to the control is observed at approximately two and four weeks as indicated in the tables under WAT and the results recorded. In some instances, the two-week observations are omitted.
(§2) The post-emergence herbicidal activity index used in Table I is as follows:
(§3) The plant species utilized in these tests are identified by letter in accordance with the following legend: […]

[2] = test system: Canada Thistle; test: Post-emergence herbicidal activity, greenhouse; conditions: Table I, 4 WAT
From the text: as §1, §2, §3

[3] = test system: Cocklebur; test: Post-emergence herbicidal activity, greenhouse; conditions: 4 WAT
From the text: as §1, §2, §3

[4] = test system: Crabgrass; test: Post-emergence herbicidal activity, greenhouse; conditions: Table II, 4 WAT
From the text: as §1, §2, §3

[5] = test system: Downy Brome; test: Post-emergence herbicidal activity, greenhouse; conditions: 4 WAT
From the text: as §1, §2, §3

[6] = test system: Hemp Sesbania; test: Post-emergence herbicidal activity, greenhouse; conditions: Table II, 4 WAT
From the text: as §1, §2, §3

[7] = test system: Johnsongrass; test: Post-emergence herbicidal activity, greenhouse; conditions: Table I, 4 WAT
From the text: as §1, §2, §3

[8] = test system: Lambsquarters; test: Post-emergence herbicidal activity, greenhouse; conditions: 4 WAT
From the text: as §1, §2, §3

[9] = test system: Morningglory; test: Post-emergence herbicidal activity, greenhouse; conditions: 4 WAT
From the text: as §1, §2, §3

[10] = test system: Panicum Spp; test: Post-emergence herbicidal activity, greenhouse; conditions: Table II, 4 WAT
From the text: as §1, §2, §3

[11] = test system: Quackgrass; test: Post-emergence herbicidal activity, greenhouse; conditions: Table I, 4 WAT
From the text: as §1, §2, §3

[12] = test system: Rice; test: Post-emergence herbicidal activity, greenhouse; conditions: Table II, 4 WAT
From the text: as §1, §2, §3

[13] = test system: Smartweed; test: Post-emergence herbicidal activity, greenhouse; conditions: 4 WAT
From the text: as §1, §2, §3

[14] = test system: Sorghum; test: Post-emergence herbicidal activity, greenhouse; conditions: Table II, 4 WAT
From the text: as §1, §2, §3

[15] = test system: Soybean; test: Post-emergence herbicidal activity, greenhouse; conditions: Table II, 4 WAT
From the text: as §1, §2, §3

[16] = test system: Sugar Beet; test: Post-emergence herbicidal activity, greenhouse; conditions: Table II, 4 WAT
From the text: as §1, §2, §3

[17] = test system: Velvetleaf; test: Post-emergence herbicidal activity, greenhouse; conditions: 4 WAT
From the text: as §1, §2, §3

[18] = test system: Wheat; test: Post-emergence herbicidal activity, greenhouse; conditions: Table II, 4 WAT
From the text: as §1, §2, §3

[19] = test system: Wild Buckwheat; test: Post-emergence herbicidal activity, greenhouse; conditions: Table II, 4 WAT
From the text: as §1, §2, §3

[20] = test system: Yellow Nutsedge; test: Post-emergence herbicidal activity, greenhouse; conditions: Table I, 4 WAT
From the text: as §1, §2, §3

[21] = test system: Barnyardgrass; test: Pre-emergent herbicidal activity; conditions: Table III; 11.2 kg/h; 2 WAT
From the text: (§4) A good grade of top soil is placed in aluminum pans and compacted to a depth of 0.95 to 1.27 cm. from the top of each pan. A predetermined number of seeds or vegetative propagules of each of several plant species are placed on top of the soil in each pan and then pressed down. Herbicidal compositions prepared as in the previous example are applied by admixture with or incorporation in the top layer of soil.
(§5) In this method, the soil required to cover the seeds and propagules is weighed and admixed with a herbicidal composition containing a known amount of the active ingredient (compound of this invention). The pans are then filled with the admixture and leveled. Watering is carried out by permitting the soil in the pans to absorb moisture through apertures in the pan bottoms. The seed and propagule containing pans are placed on a wet sand bench and maintained for approximately two weeks under ordinary conditions of sunlight and watering. At the end of this period, the number of emerged plants of each species is noted and compared to an untreated control.
(§6) The pre-emergent herbicidal activity index used below is based upon average percent control of each species as follows:
(§7) Plant species in the table are identified by the same code letters used in the previous example.

[22] = test system: Cocklebur; test: Pre-emergent herbicidal activity; conditions: Table III; 11.2 kg/h; 2 WAT
From the text: as §4, §5, §6, §7

[23] = test system: Downy Brome; test: Pre-emergent herbicidal activity; conditions: Table III; 11.2 kg/h; 2 WAT
From the text: as §4, §5, §6, §7

[24] = test system: Johnsongrass; test: Pre-emergent herbicidal activity; conditions: Table III; 11.2 kg/h; 2 WAT
From the text: as §4, §5, §6, §7

[25] = test system: Lambsquarters; test: Pre-emergent herbicidal activity; conditions: Table III; 11.2 kg/h; 2 WAT
From the text: as §4, §5, §6, §7

[26] = test system: Morningglory; test: Pre-emergent herbicidal activity; conditions: Table III; 11.2 kg/h; 2 WAT
From the text: as §4, §5, §6, §7

[27] = test system: Quackgrass; test: Pre-emergent herbicidal activity; conditions: Table III; 11.2 kg/h; 2 WAT
From the text: as §4, §5, §6, §7

[28] = test system: Velvetleaf; test: Pre-emergent herbicidal activity; conditions: Table III; 11.2 kg/h; 2 WAT
From the text: as §4, §5, §6, §7

[29] = test system: Yellow Nutsedge; test: Pre-emergent herbicidal activity; conditions: Table III; 11.2 kg/h; 2 WAT
From the text: as §4, §5, §6, §7

CCOC(=O)CN(CP(=O)(Oc1ccc(OC)cc1)Oc1ccc(OC)cc1)SSC [VI, Glycine, N-[[bis(4-methoxyphenoxy)phosphinyl]methyl]-N-(methyldithio)-, ethyl ester]
post-emergence herbicidal activity index ([1]; Table I, 5.6 kg/h): 4 (100% control) | post-emergence herbicidal activity index ([1]; Table I, 11.2 kg/h): 3 (75-99% control) | post-emergence herbicidal activity index ([1]; Table II, 0.28 kg/h): 0 (0- 24% control) | post-emergence herbicidal activity index ([1]; Table II, 1.12 kg/h): 3 (75-99% control) | post-emergence herbicidal activity index ([1]; Table II, 5.6 kg/h): 4 (100% control) | post-emergence herbicidal activity index ([2]; 5.6 kg/h): 1 (25-49% control) | post-emergence herbicidal activity index ([2]; 11.2 kg/h): 2 (50-74% control) | post-emergence herbicidal activity index ([3]; Table I, 5.6 kg/h): 2 (50-74% control) | post-emergence herbicidal activity index ([3]; Table I, 11.2 kg/h): 3 (75-99% control) | post-emergence herbicidal activity index ([3]; Table II, 0.28 kg/h): 0 (0- 24% control) | post-emergence herbicidal activity index ([3]; Table II, 1.12 kg/h): 3 (75-99% control) | post-emergence herbicidal activity index ([3]; Table II, 5.6 kg/h): 4 (100% control) | post-emergence herbicidal activity index ([4]; 0.28 kg/h): 0 (0- 24% control) | post-emergence herbicidal activity index ([4]; 1.12 kg/h): 4 (100% control) | post-emergence herbicidal activity index ([4]; 5.6 kg/h): 4 (100% control) | post-emergence herbicidal activity index ([5]; Table I, 5.6 kg/h): 2 (50-74% control) | post-emergence herbicidal activity index ([5]; Table I, 11.2 kg/h): 3 (75-99% control) | post-emergence herbicidal activity index ([5]; Table II, 0.28 kg/h): 0 (0- 24% control) | post-emergence herbicidal activity index ([5]; Table II, 1.12 kg/h): 2 (50-74% control) | post-emergence herbicidal activity index ([5]; Table II, 5.6 kg/h): 4 (100% control) | post-emergence herbicidal activity index ([6]; 0.28 kg/h): 0 (0- 24% control) | post-emergence herbicidal activity index ([6]; 1.12 kg/h): 0 (0- 24% control) | post-emergence herbicidal activity index ([6]; 5.6 kg/h): 3 (75-99% control) | post-emergence herbicidal activity index ([7]; 5.6 kg/h): 2 (50-74% control) | post-emergence herbicidal activity index ([7]; 11.2 kg/h): 3 (75-99% control) | post-emergence herbicidal activity index ([8]; Table I, 5.6 kg/h): 3 (75-99% control) | post-emergence herbicidal activity index ([8]; Table I, 11.2 kg/h): 3 (75-99% control) | post-emergence herbicidal activity index ([8]; Table II, 0.28 kg/h): 0 (0- 24% control) | post-emergence herbicidal activity index ([8]; Table II, 1.12 kg/h): 2 (50-74% control) | post-emergence herbicidal activity index ([8]; Table II, 5.6 kg/h): 4 (100% control) | post-emergence herbicidal activity index ([9]; Table I, 5.6 kg/h): 2 (50-74% control) | post-emergence herbicidal activity index ([9]; Table I, 11.2 kg/h): 3 (75-99% control) | post-emergence herbicidal activity index ([9]; Table II, 0.28 kg/h): 0 (0- 24% control) | post-emergence herbicidal activity index ([9]; Table II, 1.12 kg/h): 2 (50-74% control) | post-emergence herbicidal activity index ([9]; Table II, 5.6 kg/h): 3 (75-99% control) | post-emergence herbicidal activity index ([10]; 0.28 kg/h): 0 (0- 24% control) | post-emergence herbicidal activity index ([10]; 1.12 kg/h): 2 (50-74% control) | post-emergence herbicidal activity index ([10]; 5.6 kg/h): 4 (100% control) | post-emergence herbicidal activity index ([11]; 5.6 kg/h): 0 (0- 24% control) | post-emergence herbicidal activity index ([11]; 11.2 kg/h): 1 (25-49% control) | post-emergence herbicidal activity index ([12]; 0.28 kg/h): 0 (0- 24% control) | post-emergence herbicidal activity index ([12]; 1.12 kg/h): 0 (0- 24% control) | post-emergence herbicidal activity index ([12]; 5.6 kg/h): 3 (75-99% control) | post-emergence herbicidal activity index ([13]; Table I, 5.6 kg/h): 2 (50-74% control) | post-emergence herbicidal activity index ([13]; Table I, 11.2 kg/h): 2 (50-74% control) | post-emergence herbicidal activity index ([13]; Table II, 0.28 kg/h): 0 (0- 24% control) | post-emergence herbicidal activity index ([13]; Table II, 5.6 kg/h): 4 (100% control) | post-emergence herbicidal activity index ([14]; 0.28 kg/h): 0 (0- 24% control) | post-emergence herbicidal activity index ([14]; 1.12 kg/h): 2 (50-74% control) | post-emergence herbicidal activity index ([14]; 5.6 kg/h): 3 (75-99% control) | post-emergence herbicidal activity index ([15]; 0.28 kg/h): 0 (0- 24% control) | post-emergence herbicidal activity index ([15]; 1.12 kg/h): 1 (25-49% control) | post-emergence herbicidal activity index ([15]; 5.6 kg/h): 3 (75-99% control) | post-emergence herbicidal activity index ([16]; 0.28 kg/h): 0 (0- 24% control) | post-emergence herbicidal activity index ([16]; 1.12 kg/h): 1 (25-49% control) | post-emergence herbicidal activity index ([16]; 5.6 kg/h): 4 (100% control) | post-emergence herbicidal activity index ([17]; Table I, 5.6 kg/h): 1 (25-49% control) | post-emergence herbicidal activity index ([17]; Table I, 11.2 kg/h): 2 (50-74% control) | post-emergence herbicidal activity index ([17]; Table II, 0.28 kg/h): 0 (0- 24% control) | post-emergence herbicidal activity index ([17]; Table II, 1.12 kg/h): 1 (25-49% control) | post-emergence herbicidal activity index ([17]; Table II, 5.6 kg/h): 4 (100% control) | post-emergence herbicidal activity index ([18]; 0.28 kg/h): 0 (0- 24% control) | post-emergence herbicidal activity index ([18]; 1.12 kg/h): 1 (25-49% control) | post-emergence herbicidal activity index ([18]; 5.6 kg/h): 3 (75-99% control) | post-emergence herbicidal activity index ([19]; 0.28 kg/h): 0 (0- 24% control) | post-emergence herbicidal activity index ([19]; 1.12 kg/h): 1 (25-49% control) | post-emergence herbicidal activity index ([19]; 5.6 kg/h): 4 (100% control) | post-emergence herbicidal activity index ([20]; 5.6 kg/h): 1 (25-49% control) | post-emergence herbicidal activity index ([20]; 11.2 kg/h): 1 (25-49% control) | pre-emergent herbicidal activity index [21]: 0 (0-24% control) | pre-emergent herbicidal activity index [22]: 0 (0-24% control) | pre-emergent herbicidal activity index [23]: 0 (0-24% control) | pre-emergent herbicidal activity index [24]: 0 (0-24% control) | pre-emergent herbicidal activity index [25]: 0 (0-24% control) | pre-emergent herbicidal activity index [26]: 0 (0-24% control) | pre-emergent herbicidal activity index [27]: 0 (0-24% control) | pre-emergent herbicidal activity index [28]: 0 (0-24% control) | pre-emergent herbicidal activity index [29]: 0 (0-24% control)

From patent publication US4401604A, “Process for preparing thiosulfenamide derivatives of N-phosphonomethylglycine triesters” (Monsanto Company, priority 1981, dated 1983)
